Measured values as given in ChEMBL document CHEMBL1201862, “PubChem BioAssay data set” (2004).
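Cells were grown in 96-well plates and exposed to each compound for 48 hours at five concentrations; endpoints were interpolated linearly between bracketing concentrations, or set to the highest concentration if not reached. At the GI50, growth is halved.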 Active and inactive are the calls of the source. Cut-off read from the data, not from the text of the source: active = GI50 up to about 1.1 µM and inactive = higher.

Key:
Assay in all cases: growth of human tumour cells (NCI), 48 h
U-251 = tested on: U-251
BT-549 = tested on: BT-549
RPMI-8226 = tested on: RPMI-8226
HCT-15 = tested on: HCT-15
SK-OV-3 = tested on: SK-OV-3
786-0 = tested on: 786-0
HT-29 = tested on: HT-29
DU-145 = tested on: DU-145
CCRF-CEM = tested on: CCRF-CEM
MOLT-4 = tested on: MOLT-4
SK-MEL-2 = tested on: SK-MEL-2
HOP-62 = tested on: HOP-62
SF-539 = tested on: SF-539
OVCAR-5 = tested on: OVCAR-5
RXF 393 = tested on: RXF 393
SN12C = tested on: SN12C
KM12 = tested on: KM12
NCI/ADR-RES = tested on: NCI/ADR-RES
SF-295 = tested on: SF-295

Compound | GI50 (U-251) | GI50 (BT-549) | GI50 (RPMI-8226) | GI50 (HCT-15) | GI50 (SK-OV-3) | GI50 (786-0) | GI50 (HT-29) | GI50 (DU-145) | GI50 (CCRF-CEM) | GI50 (MOLT-4) | GI50 (SK-MEL-2) | GI50 (HOP-62) | GI50 (SF-539) | GI50 (OVCAR-5) | GI50 (RXF 393) | GI50 (SN12C) | GI50 (KM12) | GI50 (NCI/ADR-RES) | GI50 (SF-295)
C=C1C(=O)O[C@@H]2C[C@@H](C)[C@@H]3C=CC(=O)[C@@]3(C)[C@@H](OC(=O)CCCC(=O)O[C@H]3[C@@H]4C(=C)C(=O)O[C@@H]4C[C@@H](C)[C@@H]4C=CC(=O)[C@]43C)[C@H]12 | 0.101 µM (active) | 0.0252 µM (active) | 0.0107 µM (active) | 0.0335 µM | 1.35 µM (inactive) | 0.0171 µM (active) | 0.0352 µM (active) | 0.28 µM (active) | < 0.01 µM (active) | < 0.01 µM (active) | 0.152 µM (active) | 1.04 µM (active) | 0.0762 µM (active) | 0.139 µM (active) | 0.0187 µM (active) | 0.0402 µM (active) | 0.231 µM (active) | 0.396 µM (active) | 0.989 µM (active)
Cc1nnc2sc(-c3ccc(-c4ccccc4Cl)o3)nn12 | 32.5 µM (inactive) | 24 µM (inactive) | 20.4 µM (inactive) | 24.9 µM | 57.9 µM (inactive) | 26.9 µM (inactive) | 34.4 µM (inactive) | 36.6 µM (inactive) | 43.6 µM (inactive) | 19 µM (inactive) | 26.1 µM (inactive) | > 100 µM (inactive) | 19.7 µM (inactive) | > 100 µM (inactive) | 33.8 µM (inactive) | 35.4 µM (inactive) | 35.2 µM (inactive) | 21.9 µM (inactive) | 32.1 µM (inactive)
Cc1ccc(I)cc1N=C=S | 19.5 µM (inactive) | 13.3 µM (inactive) | 20.8 µM (inactive) | 17.8 µM | 37.3 µM (inactive) | 23.6 µM (inactive) | 23.5 µM (inactive) | 28.3 µM (inactive) | 21.8 µM (inactive) | 20.2 µM (inactive) | 17.8 µM (inactive) | 26.1 µM (inactive) | 18.8 µM (inactive) | 23.4 µM (inactive) | 20.2 µM (inactive) | 20.7 µM (inactive) | 17.3 µM (inactive) | 25.9 µM (inactive) | 26.9 µM (inactive)
CCOC(=O)C(NC(=O)c1ccccc1)(Nc1ccc(S(=O)(=O)Nc2nc(C)cc(C)n2)cc1)C(F)(F)F (stereo not given) | > 100 µM (inactive) | > 100 µM (inactive) | > 100 µM (inactive) | > 100 µM | 0.778 µM (active) | > 100 µM (inactive) | > 100 µM (inactive) | > 100 µM (inactive) | > 100 µM (inactive) | > 100 µM (inactive) | > 100 µM (inactive) | > 100 µM (inactive) | > 100 µM (inactive) | > 100 µM (inactive) | > 100 µM (inactive) | > 100 µM (inactive) | > 100 µM (inactive) | > 100 µM (inactive) | > 100 µM (inactive)
O=C1C=CC(=O)C(CNc2ccc(C(=O)OC34CC5CC(CC(C5)C3)C4)cc2)=C1Br | 4 µM (inactive) | 5.33 µM (inactive) | 5.6 µM (inactive) | 5.19 µM | 17.3 µM (inactive) | 13.2 µM (inactive) | 5.01 µM (inactive) | 23.6 µM (inactive) | 1.99 µM (inactive) | 2.24 µM (inactive) | 15.4 µM (inactive) | 19 µM (inactive) | 1.59 µM (inactive) | 16.7 µM (inactive) | 4.98 µM (inactive) | 11.1 µM (inactive) | 5.62 µM (inactive) | 3.82 µM (inactive) | 14.1 µM (inactive)
C=CCCCCCCCCCOC1C=CC(OC(C)=O)C(COC(C)=O)O1 (stereo not given) | 39.6 µM (inactive) | 66.4 µM (inactive) | 13.2 µM (inactive) | 36.6 µM | > 100 µM (inactive) | 67.8 µM (inactive) | 21.4 µM (inactive) | > 100 µM (inactive) | 39.1 µM (inactive) | 24.5 µM (inactive) | 38.3 µM (inactive) | 83.8 µM (inactive) | > 100 µM (inactive) | > 100 µM (inactive) | > 100 µM (inactive) | 42.8 µM (inactive) | 26.9 µM (inactive) | 41.4 µM (inactive) | 72.9 µM (inactive)
COC1=CC(=O)C2=C(C1=O)[C@H]1CC[C@]3(C)C(=O)CC[C@H]3[C@@H]1CC2 | 32.2 µM (inactive) | 19.4 µM (inactive) | 26.1 µM (inactive) | 27.2 µM | > 100 µM (inactive) | 24.1 µM (inactive) | 26.3 µM (inactive) | 25.3 µM (inactive) | 3.62 µM (inactive) | 4.31 µM (inactive) | 18.7 µM (inactive) | 59.8 µM (inactive) | 19.6 µM (inactive) | 20.3 µM (inactive) | 28.1 µM (inactive) | 21.4 µM (inactive) | 36.8 µM (inactive) | 20.1 µM (inactive) | 66.7 µM (inactive)
COC(=O)CCC(=O)NC1=C(Nc2ccc(OC)cc2)C(=O)c2ccccc2C1=O | 16.5 µM (inactive) | 15.4 µM (inactive) | 15.7 µM (inactive) | 7.18 µM | 23.7 µM (inactive) | 17.9 µM (inactive) | 12.6 µM (inactive) | 14 µM (inactive) | 26.1 µM (inactive) | 15.7 µM (inactive) | 6.3 µM (inactive) | 18.7 µM (inactive) | 14.2 µM (inactive) | 17.1 µM (inactive) | 13.4 µM (inactive) | 13.1 µM (inactive) | 14.3 µM (inactive) | 16.3 µM (inactive) | 13 µM (inactive)
CCCC(=O)Nc1cn(COC)c(C(=O)N2C[C@@H]3C[C@]34C2=CC(=O)c2[nH]cc(C)c24)n1 | 12.9 µM (inactive) | 7.74 µM (inactive) | 10.9 µM (inactive) | 13.7 µM | 11.2 µM (inactive) | 5.15 µM (inactive) | 7.76 µM (inactive) | 1.53 µM (inactive) | 1.27 µM (inactive) | 0.857 µM (active) | 8.47 µM (inactive) | 13.6 µM (inactive) | 11.7 µM (inactive) | 28.7 µM (inactive) | 2.57 µM (inactive) | 11.2 µM (inactive) | > 5 µM (inactive) | 7.87 µM (inactive) | 15.6 µM (inactive)
COC(=O)c1ccc(/N=N/N(C)COc2ccc(C#N)cc2)cc1 | 98.6 µM (inactive) | > 100 µM (inactive) | > 100 µM (inactive) | 22.4 µM | > 100 µM (inactive) | > 100 µM (inactive) | > 100 µM (inactive) | 40.4 µM (inactive) | 20.3 µM (inactive) | 82.2 µM (inactive) | > 100 µM (inactive) | > 100 µM (inactive) | > 100 µM (inactive) | 61 µM (inactive) | 95.5 µM (inactive) | > 100 µM (inactive) | 70.8 µM (inactive) | 67 µM (inactive) | 44.8 µM (inactive)
C/C=C/C(C#N)(Cc1ccccc1)OP1(=O)OC(c2ccccc2)C(C)N1C (stereo not given) | 88.5 µM (inactive) | 90.2 µM (inactive) | 33 µM (inactive) | 79.6 µM | > 100 µM (inactive) | > 100 µM (inactive) | 69.2 µM (inactive) | > 100 µM (inactive) | 19.4 µM (inactive) | 21.2 µM (inactive) | > 100 µM (inactive) | > 100 µM (inactive) | > 100 µM (inactive) | > 100 µM (inactive) | > 100 µM (inactive) | 81.7 µM (inactive) | 45.6 µM (inactive) | 72.4 µM (inactive) | 49.1 µM (inactive)
COc1ccc2c(c1)[nH]c1c3ccc(OC)cc3oc(=O)c21 | > 100 µM (inactive) | 57.3 µM (inactive) | 60.7 µM (inactive) | 5.27 µM | > 100 µM (inactive) | 0.432 µM (active) | > 100 µM (inactive) | > 100 µM (inactive) | > 100 µM (inactive) | > 100 µM (inactive) | > 100 µM (inactive) | > 100 µM (inactive) | > 100 µM (inactive) | > 100 µM (inactive) | > 100 µM (inactive) | > 100 µM (inactive) | 19.8 µM (inactive) | > 100 µM (inactive) | > 100 µM (inactive)
O=[N+]([O-])c1ccc2c3c1[C@H]1O[C@H]1c1cccc(c1-3)[C@@H]1O[C@H]21 | 1.8 µM (inactive) | 1.99 µM (inactive) | 1.23 µM (inactive) | 1.71 µM | 4.22 µM (inactive) | 1.96 µM (inactive) | 2.01 µM (inactive) | 2.33 µM (inactive) | 1.44 µM (inactive) | 3.01 µM (inactive) | 2.52 µM (inactive) | 2.9 µM (inactive) | 2.3 µM (inactive) | 2.37 µM (inactive) | 1.78 µM (inactive) | 2.12 µM (inactive) | 2.35 µM (inactive) | 2.41 µM (inactive) | 3.5 µM (inactive)
CCOC(=O)C(=O)/C(=C/NC(=S)c1ccncc1)C(=O)OCC | > 100 µM (inactive) | > 100 µM (inactive) | > 100 µM (inactive) | > 100 µM | > 100 µM (inactive) | > 100 µM (inactive) | > 100 µM (inactive) | > 100 µM (inactive) | > 100 µM (inactive) | > 100 µM (inactive) | > 100 µM (inactive) | > 100 µM (inactive) | > 100 µM (inactive) | > 100 µM (inactive) | > 100 µM (inactive) | > 100 µM (inactive) | > 100 µM (inactive) | > 100 µM (inactive) | > 100 µM (inactive)
COC(=O)c1c(O)ccc2c1c1c(n2Cc2ccc(OC)cc2)C(=O)c2ccccc2C1=O | 8.67 µM (inactive) | 0.0131 µM (active) | 0.168 µM (active) | 3.74 µM | 15.6 µM (inactive) | 12 µM (inactive) | 3.09 µM (inactive) | 18.2 µM (inactive) | 0.128 µM (active) | 0.139 µM (active) | 11.3 µM (inactive) | 16.3 µM (inactive) | 14.4 µM (inactive) | 25.4 µM (inactive) | 10.7 µM (inactive) | 2.78 µM (inactive) | 15.6 µM (inactive) | 7.21 µM (inactive) | 14.2 µM (inactive)
